Assay results taken from the supplement of paper PMC10307832.

How the values were obtained:
Experiment in all cases: relative viability (nuclei count vs DMSO), 5 days (fraction); higher = more cells survive
Decitabine + OSI-027 = compound: Nc1ncn([C@H]2C[C@H](O)[C@@H](CO)O2)c(=O)n1 [Decitabine] + COc1cccc2cc(-c3nc([C@H]4CC[C@H](C(=O)O)CC4)n4ncnc(N)c34)[nH]c12 [OSI-027] (partner 0.5 µM)
In short: (§1)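 Nuclei were stained with Hoechst during a one-step fixation (final 0.05% Triton X-100, 1% formaldehyde, 1 ug/ml Hoechst) carried out 5 days after dosing, then counted on 4× images. The cells, lung cancer lines in 1536-well plates, had been dosed by pin tool the day after seeding with one drug alone or a fixed anchor-drug dose plus five library-drug doses (not always all listed) in √10 steps. Relative viability is the nuclei count in treated wells divided by that in vehicle wells, and each value is the median of duplicate plates.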

Decitabine + Vorinostat = compound: Nc1ncn([C@H]2C[C@H](O)[C@@H](CO)O2)c(=O)n1 [Decitabine] + O=C(CCCCCCC(=O)Nc1ccccc1)NO [Vorinostat] (partner 1 µM)
In short: as §1

[1] = compound: O=C(C[C@H]1NCCC[C@@H]1O)Cn1cnc2cc(Br)c(Cl)cc2c1=O (racemic) [Halofuginone] + O=C(CCCCCCC(=O)Nc1ccccc1)NO [Vorinostat] (partner 1 µM)
In short: as §1

Halofuginone + AZD7762 = compound: O=C(C[C@H]1NCCC[C@@H]1O)Cn1cnc2cc(Br)c(Cl)cc2c1=O (racemic) [Halofuginone] + NC(=O)Nc1cc(-c2cccc(F)c2)sc1C(=O)N[C@H]1CCCNC1 [AZD7762] (partner 0.2 µM)
In short: as §1

Cell Line	relative viability (Decitabine + OSI-027; first compound 0.04 µM)	relative viability (Decitabine + OSI-027; first compound 0.1265 µM)	relative viability (Decitabine + OSI-027; first compound 0.4 µM)	relative viability (Decitabine + OSI-027; first compound 1.265 µM)	relative viability (Decitabine + OSI-027; first compound 4 µM)	relative viability (Decitabine + Vorinostat; first compound 0.04 µM)	relative viability (Decitabine + Vorinostat; first compound 0.1265 µM)	relative viability (Decitabine + Vorinostat; first compound 0.4 µM)	relative viability (Decitabine + Vorinostat; first compound 1.265 µM)	relative viability (Decitabine + Vorinostat; first compound 4 µM)	relative viability ([1]; first compound 0.001 µM)	relative viability ([1]; first compound 0.003162 µM)	relative viability ([1]; first compound 0.01 µM)	relative viability ([1]; first compound 0.03162 µM)	relative viability ([1]; first compound 0.1 µM)	relative viability (Halofuginone + AZD7762; first compound 0.001 µM)	relative viability (Halofuginone + AZD7762; first compound 0.003162 µM)	relative viability (Halofuginone + AZD7762; first compound 0.01 µM)	relative viability (Halofuginone + AZD7762; first compound 0.03162 µM)	relative viability (Halofuginone + AZD7762; first compound 0.1 µM)
NCI-H650	0.462	0.454	0.306	0.291	0.276	0.338	0.301	0.204	0.219	0.16	0.792	0.537	0.5	0.376	0.355	1.06	0.848	1.21	1	0.594
NCI-H1915	0.447	0.429	0.29	0.312	0.263	0.263	0.235	0.206	0.158	0.155	0.531	0.554	0.561	0.472	0.511	0.7	0.682	0.736	0.656	0.68
NCI-H1651	0.586	0.842	0.777	0.573	0.478	0.478	0.456	0.483	0.296	0.407	0.528	0.528	0.572	0.548	0.59	0.485	0.487	0.476	0.457	0.466
HOP-62	0.613	0.601	0.272	0.23	0.167	0.348	0.316	0.161	0.123	0.11	0.675	0.597	0.603	0.566	0.279	0.573	0.676	0.47	0.599	0.327
CAL-12T	0.558	0.612		0.305	0.268	0.615	0.432	0.486	0.318	0.238	0.876	0.897	0.746	0.651	0.445	0.642	0.688	0.584	0.695	0.695
LCLC-103H	0.406	0.472	0.462	0.376	0.376	0.653	0.81	0.628	0.511	0.561	0.865	0.807	0.803	0.723	0.719	0.808	0.851	0.784	0.793	0.695
NCI-H3122	0.814	0.955	0.468		0.559	0.92	0.866	0.574	0.53	0.487	0.924	1.13	0.938	1.01	1.06	0.937	1.09	0.985	0.94	0.922
NCI-H1395	0.483	0.529	0.516	0.455	0.492	0.548	0.634	0.605	0.429	0.524	0.741	0.682	0.656	0.603	0.49	0.385	0.39	0.372	0.385	0.41
PC-14	0.148	0.425	0.16	0.113	0.105	0.0877	0.265	0.125	0.0989	0.0956	0.803	0.626	0.646	0.292	0.0442	0.435	0.409	0.381	0.366	0.198
BEN	0.297	0.315	0.273	0.295	0.289	0.664	0.623	0.451	0.488	0.435	0.55	0.541	0.55	0.587	0.572	0.851	0.685	0.844	0.654	0.418
EPLC-272H		0.288	0.11	0.248	0.186	0.369	0.281		0.221	0.215	0.479	0.401	0.304	0.411	0.382	0.208	0.0783	0.216	0.215	0.19
LK-2	0.188	0.2	0.191	0.252	0.212	0.229	0.268	0.285	0.204	0.208	0.331	0.292	0.292	0.353	0.254	0.583	0.432	0.487	0.491	0.281
ChaGo-K-1	0.493	0.483	0.299	0.32	0.41	0.771	0.684	0.402	0.39	0.374	0.725	0.766	0.755	0.726	0.746	0.869	0.839	0.854	0.874	0.885
HCC-827	0.129	0.37	0.311	0.202	0.27	0.143	0.32	0.303	0.243	0.287	0.764	0.777	0.795	0.869	0.87	0.242	0.183	0.217	0.2	0.253
NCI-H1993	0.593	0.599	0.519	0.514	0.548	0.628	0.737	0.614	0.399	0.487	1.1	0.852	0.809	0.0067	0.576	0.733	0.421	0.787	1.11	0.586
NCI-H647	0.648	0.549	0.403	0.152	0.201	0.327	0.219	0.269	0.109	0.105	0.833	0.499	0.489	0.453	0.103	0.489	0.451	0.52	0.388	0.416
